For the experiment, the target named is CD73 (Homo sapiens (Human), UniProt P21589). In words: Biochemical assay: inhibition of CD73 activity (AMP hydrolysis, Malachite Green readout). Conditions: CD73 0.3208 nM, AMP 15 μM, 25 mM Tris-HCl pH 7.4, RT, absorbance 620 nm. The procedure, abridged:
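Phosphate from AMP hydrolysis (15 μM AMP, 10 min, RT) was detected by Malachite Green absorbance to give IC50s. Enzyme at 320 pM was first exposed 15 min to compounds, dosed from 100 μM in ½-log steps, in Tris pH 7.4 buffer with MgCl2, Brij-35 and BSA.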
CD73, sequence (P21589 27-574): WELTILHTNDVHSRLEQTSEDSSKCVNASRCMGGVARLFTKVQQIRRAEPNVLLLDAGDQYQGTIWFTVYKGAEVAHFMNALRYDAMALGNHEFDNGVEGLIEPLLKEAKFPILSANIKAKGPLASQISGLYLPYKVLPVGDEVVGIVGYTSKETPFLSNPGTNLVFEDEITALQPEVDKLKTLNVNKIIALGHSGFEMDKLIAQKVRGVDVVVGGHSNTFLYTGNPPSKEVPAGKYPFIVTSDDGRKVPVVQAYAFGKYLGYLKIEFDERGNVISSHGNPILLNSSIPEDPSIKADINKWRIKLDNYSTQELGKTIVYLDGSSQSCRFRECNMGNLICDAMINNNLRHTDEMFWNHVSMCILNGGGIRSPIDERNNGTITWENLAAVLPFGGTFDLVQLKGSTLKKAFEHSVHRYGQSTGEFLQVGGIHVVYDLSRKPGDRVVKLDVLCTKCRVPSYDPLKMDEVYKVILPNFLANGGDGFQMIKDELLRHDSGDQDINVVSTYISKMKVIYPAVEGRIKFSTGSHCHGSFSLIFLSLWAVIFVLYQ
`O=P(O)(O)C(CO)(CO)OC[C@H]1O[C@@H](n2ncc3c(N[C@@H]4CCc5ccccc54)nc(Cl)nc32)[C@H](O)[C@@H]1O` [Example 113, (2-(((2R,3S,4R,5R)-5-(6-chloro-4-(((R)-2,3-dihydro-1H-inden-1-yl)amino)-1H-pyrazolo[3,4-d]pyrimidin-1-yl)-3,4-dihydroxytetrahydrofuran-2-yl)methoxy)-1,3-dihydroxypropan-2-yl)phosphonic acid] yielded an IC50 of at most 100 nM.

In turn, `CC(C)OC[C@](CO)(OC[C@H]1O[C@@H](n2ncc3c(NC4CCCC4)nc(Cl)nc32)[C@H](O)[C@@H]1O)P(=O)(O)O` [Example 114, ((R)-2-(((2R,3S,4R,5R)-5-(6-chloro-4-(cyclopentylamino)-1H-pyrazolo[3,4-d]pyrimidin-1-yl)-3,4-dihydroxytetrahydrofuran-2-yl)methoxy)-1-hydroxy-3-isopropoxypropan-2-yl)phosphonic acid] registered an IC50 of at most 100 nM.

Compound `O=P(O)(O)C(CO)(CO)OC[C@H]1O[C@@H](n2ncc3c(NC4CCC4)nc(Cl)nc32)[C@H](O)[C@@H]1O` [Example 116, (2-(((2R,3S,4R,5R)-5-(6-chloro-4-(cyclobutylamino)-1H-pyrazolo[3,4-d]pyrimidin-1-yl)-3,4-dihydroxytetrahydrofuran-2-yl)methoxy)-1,3-dihydroxypropan-2-yl)phosphonic acid] showed an IC50 of at most 100 nM.

Turning to `O=P(O)(O)C(CO)OC[C@H]1O[C@@H](n2ccc3c(NC4CCCC4)nc(Cl)nc32)[C@H](O)[C@@H]1O` (stereo partly drawn) [Example 117, (1-(((2R,3S,4R,5R)-5-(2-chloro-4-(cyclopentylamino)-7H-pyrrolo[2,3-d]pyrimidin-7-yl)-3,4-dihydroxytetrahydrofuran-2-yl)methoxy)-2-hydroxyethyl)phosphonic acid], the 50% inhibitory concentration (IC50) is at most 100 nM.

As to `C[C@@](Cc1nn[nH]n1)(OC[C@H]1O[C@@H](n2ncc3c(NC4CCCC4)nc(Cl)nc32)[C@H](O)[C@@H]1O)P(=O)(O)O` [Example 119, ((R)-2-(((2R,3S,4R,5R)-5-(6-chloro-4-(cyclopentylamino)-1H-pyrazolo[3,4-d]pyrimidin-1-yl)-3,4-dihydroxytetrahydrofuran-2-yl)methoxy)-1-(2H-tetrazol-5-yl)propan-2-yl)phosphonic acid], the IC50 is at most 100 nM.

For the compound `C[C@](Cc1nn[nH]n1)(OC[C@H]1O[C@@H](n2ncc3c(NC4CCCC4)nc(Cl)nc32)[C@H](O)[C@@H]1O)P(=O)(O)O` [Example 120, ((S)-2-(((2R,3S,4R,5R)-5-(6-chloro-4-(cyclopentylamino)-1H-pyrazolo[3,4-d]pyrimidin-1-yl)-3,4-dihydroxytetrahydrofuran-2-yl)methoxy)-1-(2H-tetrazol-5-yl)propan-2-yl)phosphonic acid], the IC50 is at most 100 nM.

In the case of `C[C@](CO)(OC[C@H]1O[C@@H](n2ncc3c(N[C@@H]4CCc5cc(F)ccc54)nc(Cl)nc32)[C@H](O)[C@@H]1O)P(=O)(O)O` [Example 121, ((S)-2-(((2R,3S,4R,5R)-5-(6-chloro-4-(((R)-5-fluoro-2,3-dihydro-1H-inden-1-yl)amino)-1H-pyrazolo[3,4-d]pyrimidin-1-yl)-3,4-dihydroxytetrahydrofuran-2-yl)methoxy)-1-hydroxypropan-2-yl)phosphonic acid], the IC50 was at most 100 nM.

As to `C[C@@](CO)(OC[C@H]1O[C@@H](n2ncc3c(N[C@@H]4CCc5cc(F)ccc54)nc(Cl)nc32)[C@H](O)[C@@H]1O)P(=O)(O)O` [Example 122, ((R)-2-(((2R,3S,4R,5R)-5-(6-chloro-4-(((R)-5-fluoro-2,3-dihydro-1H-inden-1-yl)amino)-1H-pyrazolo[3,4-d]pyrimidin-1-yl)-3,4-dihydroxytetrahydrofuran-2-yl)methoxy)-1-hydroxypropan-2-yl)phosphonic acid], the half-maximal inhibitory concentration (IC50) is at most 100 nM.

For the compound `C[C@](CO)(OC[C@H]1O[C@@H](n2ncc3c(NC4CC5(CCC5)C4)nc(Cl)nc32)[C@H](O)[C@@H]1O)P(=O)(O)O` [Example 123, ((S)-2-(((2R,3S,4R,5R)-5-(6-chloro-4-(spiro[3.3]heptan-2-ylamino)-1H-pyrazolo[3,4-d]pyrimidin-1-yl)-3,4-dihydroxytetrahydrofuran-2-yl)methoxy)-1-hydroxypropan-2-yl)phosphonic acid], the IC50 is at most 100 nM.

`C[C@@](COCCO)(OC[C@H]1O[C@@H](n2ncc3c(NC4CCCC4)nc(Cl)nc32)[C@H](O)[C@@H]1O)P(=O)(O)O` [Example 124, ((R)-2-(((2R,3S,4R,5R)-5-(6-chloro-4-(cyclopentylamino)-1H-pyrazolo[3,4-d]pyrimidin-1-yl)-3,4-dihydroxytetrahydrofuran-2-yl)methoxy)-1-(2-hydroxyethoxy)propan-2-yl)phosphonic acid] returned an IC50 of at most 100 nM.

Take `COCC(COC)(OC[C@H]1O[C@@H](n2ncc3c(NCC4CC4)nc(Cl)nc32)[C@H](O)[C@@H]1O)P(=O)(O)O` [Example 125, (2-(((2R,3S,4R,5R)-5-(6-chloro-4-((cyclopropylmethyl)amino)-1H-pyrazolo[3,4-d]pyrimidin-1-yl)-3,4-dihydroxytetrahydrofuran-2-yl)methoxy)-1,3-dimethoxypropan-2-yl)phosphonic acid]: the IC50 was at most 100 nM.

`C[C@@](CO)(OC[C@H]1O[C@@H](n2ncc3c(NC4CC5(CCC5)C4)nc(Cl)nc32)[C@H](O)[C@@H]1O)P(=O)(O)O` [Example 126, ((R)-2-(((2R,3S,4R,5R)-5-(6-chloro-4-(spiro[3.3]heptan-2-ylamino)-1H-pyrazolo[3,4-d]pyrimidin-1-yl)-3,4-dihydroxytetrahydrofuran-2-yl)methoxy)-1-hydroxypropan-2-yl)phosphonic acid] displayed an IC50 of at most 100 nM.

As for `C[C@](CO)(OC[C@H]1O[C@@H](n2ncc3c(NC4CCCC4)nc(CO)nc32)[C@H](O)[C@@H]1O)P(=O)(O)O` [Example 127, ((S)-2-(((2R,3S,4R,5R)-5-(4-(cyclopentylamino)-6-(hydroxymethyl)-1H-pyrazolo[3,4-d]pyrimidin-1-yl)-3,4-dihydroxytetrahydrofuran-2-yl)methoxy)-1-hydroxypropan-2-yl)phosphonic acid], the IC50 was at most 100 nM.

In turn, `C[C@@](CO)(OC[C@H]1O[C@@H](n2ncc3c(NC4CCCC4)nc(CO)nc32)[C@H](O)[C@@H]1O)P(=O)(O)O` [Example 128, ((R)-2-(((2R,3S,4R,5R)-5-(4-(cyclopentylamino)-6-(hydroxymethyl)-1H-pyrazolo[3,4-d]pyrimidin-1-yl)-3,4-dihydroxytetrahydrofuran-2-yl)methoxy)-1-hydroxypropan-2-yl)phosphonic acid] displayed an IC50 of at most 100 nM.

`COC[C@@](C)(OC[C@H]1O[C@@H](n2ncc3c(NCC4CC4)nc(Cl)nc32)[C@H](O)[C@@H]1O)P(=O)(O)O` [Example 129, ((S)-2-(((2R,3S,4R,5R)-5-(6-chloro-4-((cyclopropylmethyl)amino)-1H-pyrazolo[3,4-d]pyrimidin-1-yl)-3,4-dihydroxytetrahydrofuran-2-yl)methoxy)-1-methoxypropan-2-yl)phosphonic acid]: the 50% inhibitory concentration (IC50) was at most 100 nM.

Regarding `CC(CO)(OC[C@H]1O[C@@H](n2ncc3c(NC4CCC4)nc(Cl)nc32)[C@H](O)[C@@H]1O)P(=O)(O)O` (stereo partly drawn) [Example 130, (2-(((2R,3S,4R,5R)-5-(6-chloro-4-(cyclobutylamino)-1H-pyrazolo[3,4-d]pyrimidin-1-yl)-3,4-dihydroxytetrahydrofuran-2-yl)methoxy)-1-hydroxypropan-2-yl)phosphonic acid], the half-maximal inhibitory concentration (IC50) is at most 100 nM.
